Data on three molecules can be found in article PMC10910633 (Journal of the American Chemical Society, 2023).

The subject of series [1] is Jurkat E6-1 cells. The series can be described thus: Cytotoxicity towards Jurkat lymphocytes. The series is classed as cell-based.
The test system of series [2] is HEK293T cells. The series can be described thus: Cytotoxicity towards HEK293T cells. The class given is cell-based. As to conditions: treatment for 48 h at concentrations of ≤ 10 μM.
In series [3] the target is native PKCγ (Mus musculus, UniProt P63318). The series can be described thus: cell-based. The series is classed as binding.
In series [4] the target is PKCδ. As to conditions: read-out: Previously reported biochemical Ki values, PDBu; cited from earlier work.
The target in series [5] is T1, native PKCζ (Mus musculus, UniProt Q02956).
T1 sequence (Q02956 1-592): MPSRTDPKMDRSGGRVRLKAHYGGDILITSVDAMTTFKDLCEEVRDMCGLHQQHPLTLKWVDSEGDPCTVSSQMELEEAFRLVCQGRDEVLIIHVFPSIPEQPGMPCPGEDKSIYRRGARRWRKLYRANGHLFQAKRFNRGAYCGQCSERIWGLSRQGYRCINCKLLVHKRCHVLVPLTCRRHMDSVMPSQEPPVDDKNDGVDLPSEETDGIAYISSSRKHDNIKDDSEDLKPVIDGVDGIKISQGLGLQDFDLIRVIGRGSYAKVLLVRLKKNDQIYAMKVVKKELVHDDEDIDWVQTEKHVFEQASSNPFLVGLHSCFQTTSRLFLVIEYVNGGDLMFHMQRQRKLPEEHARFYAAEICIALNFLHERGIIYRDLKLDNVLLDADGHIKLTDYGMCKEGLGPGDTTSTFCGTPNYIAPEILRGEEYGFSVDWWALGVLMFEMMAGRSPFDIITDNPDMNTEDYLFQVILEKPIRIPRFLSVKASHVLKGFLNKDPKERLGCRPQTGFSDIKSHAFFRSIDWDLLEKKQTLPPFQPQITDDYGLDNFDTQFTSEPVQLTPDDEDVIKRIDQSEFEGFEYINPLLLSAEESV
The series is classed as binding.

The target of series [6] is native PKCη (Mus musculus, UniProt P23298). Kind of series: cell-based. The series is classed as binding.
Chain of native PKCη (P23298 whole entry): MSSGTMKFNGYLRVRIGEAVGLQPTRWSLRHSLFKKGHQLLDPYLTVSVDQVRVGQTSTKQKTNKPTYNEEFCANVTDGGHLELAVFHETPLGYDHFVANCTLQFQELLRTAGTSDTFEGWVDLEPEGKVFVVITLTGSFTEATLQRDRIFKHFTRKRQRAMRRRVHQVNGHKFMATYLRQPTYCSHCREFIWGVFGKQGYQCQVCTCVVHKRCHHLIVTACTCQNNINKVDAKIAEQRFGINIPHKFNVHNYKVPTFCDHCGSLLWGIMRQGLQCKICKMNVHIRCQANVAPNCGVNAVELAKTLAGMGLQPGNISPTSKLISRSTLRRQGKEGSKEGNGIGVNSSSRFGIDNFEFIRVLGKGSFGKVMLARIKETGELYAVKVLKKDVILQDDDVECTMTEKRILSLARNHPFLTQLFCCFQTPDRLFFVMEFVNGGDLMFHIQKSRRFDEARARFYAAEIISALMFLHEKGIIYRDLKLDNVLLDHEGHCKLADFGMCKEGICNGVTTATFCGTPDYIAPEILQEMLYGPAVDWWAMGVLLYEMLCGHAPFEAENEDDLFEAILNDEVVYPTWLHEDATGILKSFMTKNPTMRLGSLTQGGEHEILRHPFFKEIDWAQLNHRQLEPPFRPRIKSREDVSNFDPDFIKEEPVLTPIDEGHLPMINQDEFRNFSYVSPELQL
In series [7] the target is native PKCδ (Mus musculus, UniProt P28867). The series can be described thus: cell-based. The series is classed as binding.
Chain of native PKCδ (P28867 whole entry): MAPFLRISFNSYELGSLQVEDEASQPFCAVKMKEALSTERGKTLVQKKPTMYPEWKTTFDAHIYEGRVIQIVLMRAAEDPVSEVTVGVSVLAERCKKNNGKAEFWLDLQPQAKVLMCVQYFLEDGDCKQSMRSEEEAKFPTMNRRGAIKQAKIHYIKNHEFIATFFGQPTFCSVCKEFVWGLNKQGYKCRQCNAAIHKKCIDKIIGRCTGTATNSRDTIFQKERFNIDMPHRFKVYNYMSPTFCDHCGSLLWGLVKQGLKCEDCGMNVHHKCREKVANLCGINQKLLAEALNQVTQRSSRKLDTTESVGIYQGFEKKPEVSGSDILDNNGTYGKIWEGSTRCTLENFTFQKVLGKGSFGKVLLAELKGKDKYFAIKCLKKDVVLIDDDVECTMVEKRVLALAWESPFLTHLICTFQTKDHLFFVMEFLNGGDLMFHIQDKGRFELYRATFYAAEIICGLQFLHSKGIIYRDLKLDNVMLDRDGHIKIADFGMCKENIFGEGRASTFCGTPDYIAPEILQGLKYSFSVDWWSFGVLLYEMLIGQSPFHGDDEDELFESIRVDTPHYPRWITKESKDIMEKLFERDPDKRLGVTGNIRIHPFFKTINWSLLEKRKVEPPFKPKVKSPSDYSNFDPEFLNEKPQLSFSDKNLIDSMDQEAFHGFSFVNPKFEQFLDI
Series [8] has as its target T2, native PKCε (Mus musculus, UniProt P16054).
T2 sequence (P16054 1-737): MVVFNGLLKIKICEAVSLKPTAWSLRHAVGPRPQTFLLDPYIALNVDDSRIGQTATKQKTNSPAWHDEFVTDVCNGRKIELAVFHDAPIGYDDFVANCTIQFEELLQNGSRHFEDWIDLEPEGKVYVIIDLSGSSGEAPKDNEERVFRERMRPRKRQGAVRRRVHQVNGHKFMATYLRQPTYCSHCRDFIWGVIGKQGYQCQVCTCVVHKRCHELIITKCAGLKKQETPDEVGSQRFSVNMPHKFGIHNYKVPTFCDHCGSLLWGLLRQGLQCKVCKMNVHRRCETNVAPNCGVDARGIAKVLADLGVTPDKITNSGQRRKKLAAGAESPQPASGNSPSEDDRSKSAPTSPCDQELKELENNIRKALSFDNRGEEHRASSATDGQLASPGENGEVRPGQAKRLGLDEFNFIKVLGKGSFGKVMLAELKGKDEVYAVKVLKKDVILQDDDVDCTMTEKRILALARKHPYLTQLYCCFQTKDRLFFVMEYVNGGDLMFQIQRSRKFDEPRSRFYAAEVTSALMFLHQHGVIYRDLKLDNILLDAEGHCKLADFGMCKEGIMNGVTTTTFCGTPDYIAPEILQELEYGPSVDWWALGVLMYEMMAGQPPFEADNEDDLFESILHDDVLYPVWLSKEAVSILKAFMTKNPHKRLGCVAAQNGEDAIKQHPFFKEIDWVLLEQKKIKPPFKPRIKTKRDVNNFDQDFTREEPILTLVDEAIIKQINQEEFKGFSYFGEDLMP
Kind of series: cell-based. The series is classed as binding.

Series [9] deals with native PKCβI (Mus musculus, UniProt P68404). Kind of series: cell-based. The class given is binding.
Chain of native PKCβI (P68404 whole entry): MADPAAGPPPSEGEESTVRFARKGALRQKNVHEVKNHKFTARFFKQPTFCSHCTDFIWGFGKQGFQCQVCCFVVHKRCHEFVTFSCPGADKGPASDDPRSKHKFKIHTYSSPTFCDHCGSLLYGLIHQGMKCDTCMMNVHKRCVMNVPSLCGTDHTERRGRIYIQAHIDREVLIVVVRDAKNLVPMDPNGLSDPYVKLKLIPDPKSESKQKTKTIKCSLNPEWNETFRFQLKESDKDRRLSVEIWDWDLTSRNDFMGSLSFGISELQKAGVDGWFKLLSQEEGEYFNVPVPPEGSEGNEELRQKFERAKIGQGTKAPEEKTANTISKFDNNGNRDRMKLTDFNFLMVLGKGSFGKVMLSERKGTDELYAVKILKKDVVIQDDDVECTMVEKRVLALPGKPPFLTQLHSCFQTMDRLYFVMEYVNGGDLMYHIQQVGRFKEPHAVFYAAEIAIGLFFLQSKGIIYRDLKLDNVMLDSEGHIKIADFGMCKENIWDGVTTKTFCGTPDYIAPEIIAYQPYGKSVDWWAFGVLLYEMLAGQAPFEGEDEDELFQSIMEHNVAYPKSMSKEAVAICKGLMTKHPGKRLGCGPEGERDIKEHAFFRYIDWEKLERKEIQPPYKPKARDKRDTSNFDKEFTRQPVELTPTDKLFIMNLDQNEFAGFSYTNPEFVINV
For series [10], the target named is native PKCθ (Mus musculus, UniProt Q02111). Kind of series: cell-based. The series is classed as binding.
Chain of native PKCθ (Q02111 whole entry): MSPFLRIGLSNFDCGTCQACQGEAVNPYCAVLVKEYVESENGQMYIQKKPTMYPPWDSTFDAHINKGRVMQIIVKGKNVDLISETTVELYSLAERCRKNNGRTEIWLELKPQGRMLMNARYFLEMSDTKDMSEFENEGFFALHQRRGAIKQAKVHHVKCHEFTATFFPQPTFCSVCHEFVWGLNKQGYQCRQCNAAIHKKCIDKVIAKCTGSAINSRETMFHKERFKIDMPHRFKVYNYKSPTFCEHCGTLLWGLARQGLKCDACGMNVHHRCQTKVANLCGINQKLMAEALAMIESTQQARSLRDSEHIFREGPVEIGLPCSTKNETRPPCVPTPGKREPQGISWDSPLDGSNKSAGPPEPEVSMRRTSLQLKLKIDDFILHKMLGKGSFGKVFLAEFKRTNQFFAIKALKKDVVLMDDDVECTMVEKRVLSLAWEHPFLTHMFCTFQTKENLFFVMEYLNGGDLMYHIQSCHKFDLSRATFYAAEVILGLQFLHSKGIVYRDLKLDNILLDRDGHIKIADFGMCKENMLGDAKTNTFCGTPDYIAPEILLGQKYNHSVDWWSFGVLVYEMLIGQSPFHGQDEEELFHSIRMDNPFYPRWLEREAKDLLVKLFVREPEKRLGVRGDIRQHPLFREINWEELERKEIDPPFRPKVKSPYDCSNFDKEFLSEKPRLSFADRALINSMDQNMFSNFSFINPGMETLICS
The target of series [11] is PKCθ. To be noted: read-out: Previously reported biochemical Ki values, Bryostatin 1, [3H]PDBu at 4 °C; cited from earlier work.
In series [12] the target is PKCγ. To be noted: read-out: Previously reported biochemical Ki values, Bryostatin 1, [3H]PDBu at 4 °C; cited from earlier work.
Series [13] addresses PKCζ. To be noted: [3H]PDBu at 4 °C; cited from earlier work.
The target of series [14] is PKCα. To be noted: read-out: Previously reported biochemical Ki values, Bryostatin 1, [3H]PDBu at 4 °C; cited from earlier work.
The target of series [15] is PKCε. To be noted: read-out: Previously reported biochemical Ki values, Bryostatin 1, [3H]PDBu at 4 °C; cited from earlier work.
For series [16], the target named is PKCη. As to conditions: read-out: Previously reported biochemical Ki values, Bryostatin 1, [3H]PDBu at 4 °C; cited from earlier work.
Series [17] concerns the target PKCβI. As to conditions: read-out: Previously reported biochemical Ki values, Bryostatin 1, [3H]PDBu at 4 °C; cited from earlier work.
Series [18] deals with native PKCα (Mus musculus, UniProt P20444). The series can be described thus: cell-based.
Setting [19] is: read-out: Cellular Ki values for native PKCs.

Where two headings read alike, the source gives them in different places.

For `CN(C)CCCn1cc(C2=C(c3c[nH]c4ccccc34)C(=O)NC2=O)c2ccccc21` [BIM1, bisindolylmaleimide I], the “effect of BIM1 on cytotoxicity of probes 1–3 towards Jurkat lymphocytes” value in [1] was “reduced or eliminated”. Also, the “effect of BIM1 on toxicity of PDBu towards Jurkat lymphocytes” value in series [1] (BIM1 2 μM) is recorded as “completely blocked”.

The term Ki denotes the dissociation constant of the complex between target and ligand, obtained from inhibition or displacement. Usually IC50 stands for the concentration needed to halve the response being measured. As to `CCCC(=O)O[C@@H]1[C@@H](C)[C@@]2(O)[C@@H](C=C(CO)C[C@]3(O)C(=O)C(C)=C[C@@H]23)[C@@H]2C(C)(C)[C@]12OC(=O)CCC` [PDBu, phorbol 12, 13-dibutyrate], the “cytotoxicity towards HEK293T cells” value in series [2] is given as “non-toxic”. For the same molecule, the Ki in series [3] (setting [19]) was 18 nM; in series [4], […]; in series [6] (setting [19]), 27 nM; in series [7] (setting [19]), 45 nM; in series [8] (setting [19]) it was 43 nM; in [9] (setting [19]) it was 15 nM. For the same molecule, the inhibition constant Ki in [10] (setting [19]) is 49 nM. Also, the “Cellular Ki values for native PKCs” value in series [5] is “No binding”. Further, the “lower affinity for PKCδ in cells than in biochemical assays” value in [7] is given as 10 fold. Besides, the half-maximal inhibitory concentration (IC50) in series [1] (read-out: cytotoxic potency towards Jurkat lymphocytes, IC50) came to 2 nM. In [9], the “fluctuation in measured cellular IC50 and Ki values” is “less than 3 fold”.

On to `CCC/C=C/C=C/C(=O)O[C@H]1/C(=C/C(=O)OC)C[C@H]2C[C@H]([C@@H](C)O)OC(=O)C[C@H](O)C[C@@H]3C[C@H](OC(C)=O)C(C)(C)[C@](O)(C[C@@H]4C/C(=C/C(=O)OC)C[C@H](/C=C/C(C)(C)[C@]1(O)O2)O4)O3` [bryostatin 1], for which the Ki in series [11] is […]; in [12], […]; in [3] it was 2 nM; in series [6] it was 5 nM; in series [14], […]; in series [15] it was […]. Further, the Ki in series [16] is […]; in [7], 17 nM; in series [8], 11 nM; in series [9] it was 2 nM; in [10] it was […]; in series [17], […]. In series [18], this molecule had an inhibition constant Ki of 4 nM. In addition, the “Previously reported biochemical Ki values, Bryostatin 1” value in [13] is given as “No binding”. In addition, the “Cellular Ki values for native PKCs” value in [5] (PKCζ, competition with probe 1, BIM1 2 μM, 2 h 37 °C) is “No binding”. Also, the “lower affinity for PKCδ in cells than in biochemical assays” value in [7] (cellular Ki versus previously reported biochemical Ki) is reported as […].
